In patent publication US9527841B2, “Substituted pyrido[2,3-b]pyrazines as phosphodiesterase 2A inhibitors” (Takeda Pharmaceutical Company Limited, priority 2012, dated 2016):

Target: T1, Human PDE2A3 enzyme (Homo sapiens, UniProt O00408)
T1 construct: transfected with the full-length gene; His-tag; made in house; host or cells: Sf9 insect cells
Experiment: PDE Enzyme Inhibition Assay (SPA, [3H]cGMP)
Format: biochemical
Details: compound 10 μM; substrate [3H]cGMP 77 nM; 60 min at room temperature; duplicate
Protocol: Human PDE2A3 enzyme was generated from Sf9 cells transfected with the full-length gene. The extracted enzyme from Sf9 cells was purified by His-tag affinity column and gel filtration. The enzyme was stored at −70° C. until use. PDE activity was measured using a SPA (Scintillation Proximity Assay) (GE Healthcare). To evaluate the inhibitory activity, 10 μl of serial diluted compounds were incubated with 20 μl of PDE enzyme in assay buffer (50 mM HEPES-NaOH, 8.3 mM MgCl2, 1.7 mM EGTA, 0.1% BSA (pH 7.4)) at room temperature for 30 min. Final concentration of DMSO in the assay was 1%. The evaluation of the compounds were performed in duplicate in 96-well half-area plates (Corning) or 384-well OptiPlate (PerkinElmer). To start the reaction, 10 μl of substrate [^3H] cGMP (77 nM, PerkinElmer) was added for a final assay volume of 40 μl. After 60 min incubation at room temperature, 20 μl of yttrium SPA beads (20 mg/ml) containing zinc sulphate was added thereto to terminate the PDE reaction. After being settled for additional 1 hr, the assay plates were counted in a scintillation counter (PerkinElmer) to allow calculation of inhibition rate. Inhibition rate was calculated on the basis of 0% control wells with enzyme and DMSO, and 100% control wells without enzyme.

T1 sequence (O00408 whole entry): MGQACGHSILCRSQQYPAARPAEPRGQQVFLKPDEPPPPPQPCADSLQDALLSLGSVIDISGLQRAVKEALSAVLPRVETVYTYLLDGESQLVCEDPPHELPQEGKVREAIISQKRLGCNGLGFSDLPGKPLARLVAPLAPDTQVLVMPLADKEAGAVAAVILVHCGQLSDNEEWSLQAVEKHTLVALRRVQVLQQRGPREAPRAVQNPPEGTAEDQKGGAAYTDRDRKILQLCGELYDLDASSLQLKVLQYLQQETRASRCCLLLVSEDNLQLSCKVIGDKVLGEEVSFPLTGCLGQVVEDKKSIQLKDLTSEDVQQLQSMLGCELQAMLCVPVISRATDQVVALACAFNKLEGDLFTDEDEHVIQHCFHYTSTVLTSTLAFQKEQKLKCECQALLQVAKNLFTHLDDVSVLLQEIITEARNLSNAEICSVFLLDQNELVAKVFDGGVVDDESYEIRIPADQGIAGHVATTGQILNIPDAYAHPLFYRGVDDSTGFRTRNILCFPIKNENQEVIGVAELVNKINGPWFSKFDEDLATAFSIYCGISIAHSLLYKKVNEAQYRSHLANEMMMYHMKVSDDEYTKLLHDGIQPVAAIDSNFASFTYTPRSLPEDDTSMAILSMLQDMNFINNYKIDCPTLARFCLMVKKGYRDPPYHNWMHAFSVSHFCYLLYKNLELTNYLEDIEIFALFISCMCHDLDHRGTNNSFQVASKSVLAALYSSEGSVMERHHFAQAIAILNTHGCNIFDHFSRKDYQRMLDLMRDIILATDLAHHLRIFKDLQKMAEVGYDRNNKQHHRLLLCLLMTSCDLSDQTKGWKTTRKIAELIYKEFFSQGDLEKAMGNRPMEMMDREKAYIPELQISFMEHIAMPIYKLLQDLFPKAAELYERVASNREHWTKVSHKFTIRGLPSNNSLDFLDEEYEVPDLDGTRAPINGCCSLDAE

Row | Compound | inhibition at 10 µM [%]
1 | CCC(Oc1ccc(S(=O)(=O)C(F)(F)F)cc1)C(=O)N1CC(=O)Nc2cccnc21 (centres unmarked) [Example 75, 4-(2-(4-((trifluoromethyl)sulfonyl)phenoxy)butanoyl)-3,4-dihydropyrido[2,3-b]pyrazin-2(1H)-one] | 95
2 | CCC(Oc1ccc(OC(F)(F)F)cc1)C(=O)N1CC(=O)Nc2cccnc21 (centres unmarked) [Example 3, optical active form of 4-(2-(4-(trifluoromethoxy)phenoxy)butanoyl)-3,4-dihydropyrido[2,3-b]pyrazin-2 (1H)-one] | 100
3 | CCC(Oc1ccc(OC(F)(F)F)cc1)C(=O)N1CC(=O)Nc2c(C)ccnc21 (centres unmarked) [Example 29, optical active form of 8-methyl-4-(2-(4-(trifluoromethoxy)phenoxy)butanoyl)-3,4-dihydropyrido[2,3-b]pyrazin-2(1H)-one] | 99
4 | CCC(Nc1ccc(OC(F)(F)F)cc1)C(=O)N1CC(=O)Nc2cccnc21 (centres unmarked) [Example 23, 4-(2-((4-(trifluoromethoxy)phenyl)amino)butanoyl)-3,4-dihydropyrido[2,3-b]pyrazin-2(1H)-one] | 97
5 | COCCC(Oc1ccc(OC(F)(F)F)cc1)C(=O)N1CC(=O)Nc2cccnc21 (centres unmarked) [Example 18, 4-(4-methoxy-2-(4-(trifluoromethoxy)phenoxy)butanoyl)-3,4-dihydropyrido[2,3-b]pyrazin-2(1H)-one] | 99
6 | CCC(Oc1ccc(C(F)(F)F)cc1)C(=O)N1CC(=O)Nc2cccnc21 (centres unmarked) [Example 4, 4-(2-(4-(trifluoromethyl)phenoxy)butanoyl)-3,4-dihydropyrido[2,3-b]pyrazin-2(1H)-one] | 98
7 | CCC(Oc1ccc(OC(F)(F)F)cc1)C(=O)N1CC(=O)Nc2ccc(C)nc21 (centres unmarked) [Example 28, optical active form of 6-methyl-4-(2-(4-(trifluoromethoxy)phenoxy)butanoyl)-3,4-dihydropyrido[2,3-b]pyrazin-2(1H)-one] | 99
8 | CCC(Oc1ccc(-n2cccn2)cc1)C(=O)N1CC(=O)Nc2cccnc21 (centres unmarked) [Example 55, 4-(2-(4-(1H-pyrazol-1-yl)phenoxy)butanoyl)-3,4-dihydropyrido[2,3-b]pyrazin-2(1H)-one] | 99
9 | CCC(Oc1ccc(OC(F)(F)F)cc1)C(=O)N1CC(=O)Nc2cc(C)cnc21 (centres unmarked) [Example 6, 7-methyl-4-(2-(4-(trifluoromethoxy)phenoxy)butanoyl)-3,4-dihydropyrido[2,3-b]pyrazin-2(1H)-one] | 100
10 | O=C1CN(C(=O)[C@@H]2CCCN2c2ccc(OC(F)(F)F)cc2)c2ncccc2N1 [Example 25, 4-(1-(4-(trifluoromethoxy)phenyl)prolyl)-3,4-dihydropyrido[2,3-b]pyrazin-2(1H)-one] | 96
11 | COc1cnc2c(c1)NC(=O)CN2C(=O)C(Oc1ccc(-n2cccn2)c(F)c1)C(C)C (centres unmarked) [Example 135, 4-(2-(3-fluoro-4-(1H-pyrazol-1-yl)phenoxy)-3-methylbutanoyl)-7-methoxy-3,4-dihydropyrido[2,3-b]pyrazin-2(1H)-one] | 99
12 | CC(C)C(Oc1ccc(C(F)(F)F)cc1)C(=O)N1CC(=O)Nc2cccnc21 (centres unmarked) [Example 21, 4-(3-methyl-2-(4-(trifluoromethyl)phenoxy)butanoyl)-3,4-dihydropyrido[2,3-b]pyrazin-2(1H)-one] | 98
13 | CCC(Oc1ccc(OC(F)(F)F)cc1)C(=O)N1CC(=O)Nc2ccc(-c3ccn(C)n3)nc21 (centres unmarked) [Example 132, optical active form of 6-(1-methyl-1H-pyrazol-3-yl)-4-(2-(4-(trifluoromethoxy)phenoxy)butanoyl)-3,4-dihydropyrido[2,3-b]pyrazin-2(1H)-one] | 100
14 | CCC(Oc1ccc(C(C)C)cc1)C(=O)N1CC(=O)Nc2cccnc21 (centres unmarked) [Example 47, 4-(2-(4-isopropylphenoxy)butanoyl)-3,4-dihydropyrido[2,3-b]pyrazin-2(1H)-one] | 98
